Results as given in EP0565593B1, “REDUCING PESTICIDAL INTERACTIONS IN CROPS” (priority 1990, dated 1992).
“And” between values parts separate entries of the source, which are not always exact repeats. Equal entries are not always repeated.

Experiments:
Giant foxtail (GIFT) = experiment: whole plant or invertebrate; assay type: in vivo; conditions: for inhibition at 140 g/ha: Setaria faberi, iv, 312 h
cotton (COTT) = experiment: Multi-crop greenhouse test, biocide, herbicide and safener applied to soil covers (Examples 65, 66; Tables 64, 65); assay type: in vivo; parameters: inhibition: dose or concentration left out as unconfirmed; conditions: Gossypium hirsutum, soil; for inhibition at 18 g/ha: Herb. No. 1 0.018 Kg/Ha alone; for inhibition at 70 g/ha: Herb. No. 1 0.07 Kg/Ha alone; for inhibition at 280 g/ha: Herb. No. 1 0.28 Kg/Ha alone
Experimental: Tests according to this invention in various crops indicate widespread application of the invention. In Examples 62-66 below are described tests with a variety of herbicides contacted with COUNTER® 15G in the presence and absence of MON-7400 (Antidote No. 12); MON-13900 (No. 1); MON-4660 (No. 16) and flurazole (No. 16). Those tests were conducted according to Procedures IV or V described above and illustrated further in other foregoing examples. Plants used in all tests were, for crops (as abbreviated in parentheses); cotton (COTT); soybean (SOBE); CORN, grain sorghum (GRSO); wheat (WHEA) and RICE, and the weeds giant foxtail (GIFT) and velvetleaf (VELE). The data in the tables below represent averages of two replications.
In this test the crops and weeds were planted 1.3 cm deep in 13.7 cm X 27.7 cm pans containing Dupo silt loam soil. The test safeners were applied in acetone solution and COUNTER 15G as dry granules to soil cover layers and incorporated by shaking in a bag. Treated cover layers were placed on seeded pans which were transferred to greenhouse benches and subirrigated. Herbicide was applied POE six (6) days after PPI initiation and observations of plant injury made ten (10) days later; results are shown in Table 61. The herbicide used in this example was BEACON (No. 8).
In another test in the several crops and weeds used in this test series, the herbicidal component was MON-12000 (No. 1); the other components were the same. the procedure used in this test was the same as that described in Example 62, modified to use a light overhead irrigation (about 0.32 cm/day) during days 4-7 of the test.
In yet another test in this series, XRD-498 (Herbicide No. 21) was used as the herbicidal component in contact with COUNTER 15G in the presence of the above safeners. The various components of the system (biocide, herbicide and safener) were applied concurrently to soil covers of the seeded plants.

## COC(=O)c1c(Cl)nn(C)c1S(=O)(=O)NC(=O)Nc1nc(OC)cc(OC)n1 [Herbicide No. 1, N-[(4,6-dimethoxypyrimidin-2-yl)aminocarbonyl]-3-chloro-4-methoxycarbonyl-5-sulfonamide, reference compound]
Giant foxtail (GIFT); Herbicide No. 1 0.0175 Kg/Ha PPI alone, Table 19
  % Inhibition GIFT: 15%
Giant foxtail (GIFT); Herbicide No. 1 0.0175 Kg/Ha PPI alone, Table 20
  % Inhibition GIFT: 0%
Giant foxtail (GIFT); Herbicide No. 1 0.0175 Kg/Ha PPI alone, Table 21
  % Inhibition GIFT: 0%
Giant foxtail (GIFT); Herbicide No. 1 0.0175 Kg/Ha PPI alone, Table 22
  % Inhibition GIFT: 0%
Giant foxtail (GIFT); Herb. No. 1 0.14 kg/Ha alone, PPI, 13 days after planting
  inhibition at 140 g/ha: 30%
Giant foxtail (GIFT); Table 51, Herbicide No. 1 0.14 Kg/Ha, where applied Biocide No. 8 8.96 kg/Ha and antidote 4.48 Kg/Ha, all PPI, observed 13 days after treatment
  inhibition at 140 g/ha: 60%
Giant foxtail (GIFT); in vivo
  % Inhibition GIFT: 60% and 65% and 80%
Cotton (COTT); Table 64, Herb. No. 1 0.018 Kg/Ha + Biocide No. 1 8.96 Kg/Ha
  inhibition: 15%
Cotton (COTT); Table 64
  inhibition at 18 g/ha: 10%
  inhibition at 70 g/ha: 20%
  inhibition at 280 g/ha: 60%
Cotton (COTT); Table 64, Herb. No. 1 0.07 Kg/Ha + Biocide No. 1 8.96 Kg/Ha
  inhibition: 0%
Cotton (COTT); Table 64, Herb. No. 1 0.28 Kg/Ha + Biocide No. 1 8.96 Kg/Ha
  inhibition: 55%
Cotton (COTT); Table 65, Herb. No. 1 0.018 Kg/Ha + Biocide No. 1 8.96 Kg/Ha
  inhibition: 0%
Cotton (COTT); Table 65
  inhibition at 18 g/ha: 0%
  inhibition at 70 g/ha: 20%
  inhibition at 280 g/ha: 40%
Cotton (COTT); Table 65, Herb. No. 1 0.07 Kg/Ha + Biocide No. 1 8.96 Kg/Ha
  inhibition: 20%
Cotton (COTT); Table 65, Herb. No. 1 0.28 Kg/Ha + Biocide No. 1 8.96 Kg/Ha
  inhibition: 75%
